Values of other authors as cited in publication PMC4627231, “Targeting the sugar metabolism of tumors with a first-in-class 6-phosphofructo-2-kinase (PFKFB4) inhibitor” (Oncotarget, 2015).

Tested on: breast cancer patients
Parameters: method as in PMID 25524798
Settings: cited from earlier work

For `CC(=O)c1c(C)c2cnc(Nc3ccc(N4CCNCC4)cn3)nc2n(C2CCCC2)c1=O` [palbociclib], the progression-free survival is given as “double” and the toxicity is given as “without causing excessive toxicity”.
